The text below walks through data of paper PMC6272914, “Bio-Guided Isolation of Methanol-Soluble Metabolites of Common Spruce (Picea abies) Bark by-Products and Investigation of Their Dermo-Cosmetic Properties” (Molecules, 2016).

Structures are written as SMILES.

The target of this test is collagenase from Clostridium histolyticum. The experiment in a line: fluorogenic MMP2 substrate collagenase inhibition assay. The class given is biochemical, Hathewaya histolytica.
Broadly, the IC50 is the concentration needed to halve the response being measured. Low readings indicate inhibition by little substance, high ones a need for much substance. `OC[C@H]1O[C@@H](Oc2cc(O)cc(/C=C/c3ccc(O)c(O)c3)c2)[C@H](O)[C@@H](O)[C@@H]1O` [compound 8, E-astringin] showed a 50% inhibitory concentration (IC50) of 125 µM.

On to `O=C1c2c(O)cc(O)cc2O[C@H](c2ccc(O)c(O)c2)[C@H]1O` [compound 4, taxifolin], for which the 50% inhibitory concentration (IC50) was 193 µM.

With `O=C1c2c(O)cc(O)cc2O[C@H](c2ccc(O)c(O[C@@H]3O[C@H](CO)[C@@H](O)[C@H](O)[C@H]3O)c2)[C@H]1O` [compound 9, taxifolin-3′-O-glucoside], the IC50 is 141 µM.

`OC[C@H]1O[C@@H](Oc2cc(O)cc(/C=C/c3ccc(O)cc3)c2)[C@H](O)[C@@H](O)[C@@H]1O` [compound 6, E-piceid] gave an IC50 of 259 µM. Against the preceding molecule, the IC50 is about 1.8-fold higher.

Molecule `CC(C)C[C@H](NP(=O)(O)O[C@@H]1O[C@@H](C)[C@H](O)[C@@H](O)[C@H]1O)C(=O)N[C@@H](Cc1c[nH]c2ccccc12)C(=O)O` [PRMD, phosphoramidon, reference compound] yielded an IC50 of 6.9 µM.
